Laboratory results taken from patent US6890885B2, “Herbicidal composition” (priority 2000, dated 2005).
Several values for one entry are separate records, joined by “and”; a condition that tells them apart may be missing. Equal values may be shown once.

Experiments:
Format in all cases: in vivo
[1] = tested on: Monocotyledonous and dicotyledonous test plants; test: Pre-emergence test: herbicidal action (% action) of single active ingredients and mixtures, with expected action We according to Colby; settings: for herbicidal action (% action): evaluated after 36 days
From the text: (§1) The herbicidal action to be expected We for a given combination of two herbicides can be calculated as follows (see COLBY, S. R., “Calculating synergistic and antagonistic response of herbicide combinations”, Weeds 15, pages 20-22,1967):
(§2) When the action actually observed is greater than the value to be expected We, there is a synergistic effect.
Experiment Description—Pre-emergence Test
Monocotyledonous and dicotyledonous test plants are sown in standard soil in plastics pots. Directly after sowing, the test substances are applied in aqueous suspension by spraying (500 liters of water/ha). The rates of application depend on the optimum doses ascertained under field conditions and greenhouse conditions. The test plants are then grown on in the greenhouse under optimum conditions. The tests are evaluated after 36 days (% action, 100%=plant has died, 0%=no phytotoxic action).
In the following Tables, evaluation is carried out after 14 days:
In the following Tables, evaluation is carried out after 31 days: […]

[2] = tested on: test plants; test: Post-emergence test: herbicidal action (% action) of the herbicide on its own and as a mixture, with expected action We according to Colby
From the text: A synergistic effect exists whenever the action of the active ingredient combination of compounds of formula 1 and 2.1 to 2.51 is greater than the sum of the actions of the active ingredients applied separately.
as §1
• X=percentage herbicidal action on treatment with the compound of formula I at a rate of application of p kg per hectare, compared with the untreated control (=0%). • Y=percentage herbicidal action on treatment with a compound of formula 2.1 to 2.51 at a rate of application of q kg per hectare, compared with the untreated control. • We=expected herbicidal action (percentage herbicidal action compared with the untreated control) following treatment with the compounds of formulae 1 and 2.1 to 2.51 at a rate of application of p+q kg of active ingredient per hectare.
as §2
Experiment Description—Post-emergence Test
The test plants are grown to the 2- to 3-leaf stage in plastics pots under greenhouse conditions. A standard soil is used as cultivation substrate. At the 2- to 3-leaf stage, the herbicide is applied to the test plants on its own and as a mixture. The application is carried out using an aqueous suspension of the test substances in 500 liters of water/ha. The rates of application depend on the optimum doses ascertained under field conditions and greenhouse conditions. The tests are evaluated after 33 days (% action, 100%=plant has died, 0%=no phytotoxic action).
Mixture A contains as active ingredients 915 g/liter of the compound of formula 2.2a and 45 g/liter of the compound of formula 3.1.
In the following Tables, evaluation is carried out after 21 days: […]

[3] = tested on: crop plants, e.g. maize and cereals; test: Safening action: phytotoxic action of the herbicides on crop plants with and without safener; settings: 50 g/ha herbicide alone, applied at 4-leaf stage, 4 weeks after application
Experimental: Biological Example: Safening Action
The test plants are grown in plastics pots under greenhouse conditions to the 4-leaf stage. At that stage, the herbicides alone, and the mixtures of the herbicides with the test compounds that are to be tested as safeners, are applied to the test plants. The application is in the form of an aqueous suspension of the test compounds prepared from a 25% wettable powder (Example F3, b)) with 500 liters of water/ha. 4 weeks after application, the phytotoxic action of the herbicides on the crop plants, e.g. maize and cereals, is evaluated using a percentage scale. 100% denotes that the test plant has died, 0% denotes no phytotoxic action.
The same results are obtained when the mixtures are formulated in accordance with Examples F1, F2 and F4 to F8.

## Cc1nc(C(F)(F)F)ccc1C(=O)C1=C(O)C2CCC(C2)C1=O (centres unmarked) [Compound 1.001, 4-hydroxy-3-(2-methyl-6-trifluoromethyl-pyridine-3-carbonyl)-bicyclo[3.2.1]oct-3-en-2-one]
[1]; Amaranthus, 6 g/ha, after 23 days
  herbicidal action: 10%
[1]; Chenopodium, 6 g/ha, after 23 days (Table B37)
  herbicidal action: 50%
[1]; Chenopodium, 6 g/ha, after 23 days (Table B38)
  herbicidal action: 50%
[1]; Chenopodium, 12.5 g/ha, after 14 days (Table B19)
  herbicidal action: 80%
[1]; Chenopodium, 12.5 g/ha, after 14 days (Table B20)
  herbicidal action: 80%
[1]; Chenopodium, 25 g/ha, after 14 days
  herbicidal action: 80%
[1]; Chenopodium, Compd. 1.001 6.25 g/ha
  herbicidal action (% action): 0%
[1]; Chenopodium, Compd. 1.001 12.5 g/ha
  herbicidal action (% action): 0%
[1]; Chenopodium, Compd. 1.001 25 g/ha
  herbicidal action (% action): 0%
[1]; Cyperus, 12.5 g/ha, after 14 days (Table B19)
  herbicidal action: 0%
[1]; Cyperus, 12.5 g/ha, after 14 days (Table B20)
  herbicidal action: 0%
[1]; Cyperus, 25 g/ha, after 14 days (Table B18)
  herbicidal action: 0%
[1]; Cyperus, 25 g/ha, after 14 days (Table B22)
  herbicidal action: 10%
[1]; Ipomoea, 25 g/ha, after 31 days (Table B25)
  herbicidal action: 70%
[1]; Ipomoea, 25 g/ha, after 31 days (Table B26)
  herbicidal action: 70%
[1]; Ipomoea, 25 g/ha, after 31 days (Table B27)
  herbicidal action: 70%
[1]; Ipomoea, Compd. 1.001 6.25 g/ha
  herbicidal action (% action): 0%
[1]; Ipomoea, Compd. 1.001 12.5 g/ha
  herbicidal action (% action): 0%
[1]; Ipomoea, Compd. 1.001 25 g/ha
  herbicidal action (% action): 30%
[1]; Polygonum, 25 g/ha, after 31 days (Table B23)
  herbicidal action: 0%
[1]; Polygonum, 25 g/ha, after 31 days (Table B24)
  herbicidal action: 0%
[1]; Polygonum, 50 g/ha, after 31 days
  herbicidal action: 0%
[1]; Sida, Compd. 1.001 6.25 g/ha
  herbicidal action (% action): 0%
[1]; Sida, Compd. 1.001 12.5 g/ha
  herbicidal action (% action): 0%
[1]; Sida, Compd. 1.001 25 g/ha
  herbicidal action (% action): 0%
[1]; Solanum, 12.5 g/ha, after 14 days (Table B19)
  herbicidal action: 75%
[1]; Solanum, 12.5 g/ha, after 14 days (Table B20)
  herbicidal action: 75%
[1]; Solanum, 12.5 g/ha, after 14 days (Table B21)
  herbicidal action: 75%
[1]; Solanum, 25 g/ha, after 14 days
  herbicidal action: 80%
[1]; Sorghum, Compd. 1.001 6.25 g/ha
  herbicidal action (% action): 0%
[1]; Sorghum, Compd. 1.001 12.5 g/ha
  herbicidal action (% action): 0%
[1]; Sorghum, Compd. 1.001 25 g/ha
  herbicidal action (% action): 30%
[1]; Xanthium, 25 g/ha, after 31 days (Table B25)
  herbicidal action: 80%
[1]; Xanthium, 25 g/ha, after 31 days (Table B26)
  herbicidal action: 80%
[1]; Xanthium, 25 g/ha, after 31 days (Table B27)
  herbicidal action: 80%
[2]; Ipomoea, 6.25 g/ha, post-emergence, after 33 days
  herbicidal action: 0%
[2]; Ipomoea, 6.25 g/ha, post-emergence, after 33 days (Table B10)
  herbicidal action: 0%
[2]; Ipomoea, 12.5 g/ha, post-emergence, after 21 days
  herbicidal action: 30%
[2]; Ipomoea, 12.5 g/ha, post-emergence, after 33 days
  herbicidal action: 0%
[2]; Ipomoea, 12.5 g/ha, post-emergence, after 33 days (Table B8)
  herbicidal action: 0%
[2]; Ipomoea, 25 g/ha, post-emergence, after 21 days (Table B29)
  herbicidal action: 30%
[2]; Ipomoea, 25 g/ha, post-emergence, after 21 days (Table B30)
  herbicidal action: 30%
[2]; Ipomoea, 25 g/ha, post-emergence, after 21 days (Table B31)
  herbicidal action: 30%
[2]; Ipomoea, 25 g/ha, post-emergence, after 21 days (Table B33)
  herbicidal action: 30%
[2]; Polygonum, 6.25 g/ha, post-emergence, after 33 days
  herbicidal action: 0%
[2]; Polygonum, 6.25 g/ha, post-emergence, after 33 days (Table B10)
  herbicidal action: 0%
[2]; Polygonum, 12.5 g/ha, post-emergence, after 21 days (Table B32)
  herbicidal action: 30%
[2]; Polygonum, 12.5 g/ha, post-emergence, after 21 days (Table B34)
  herbicidal action: 30%
[2]; Polygonum, 12.5 g/ha, post-emergence, after 21 days (Table B35)
  herbicidal action: 30%
[2]; Polygonum, 12.5 g/ha, post-emergence, after 33 days
  herbicidal action: 0%
[2]; Polygonum, 12.5 g/ha, post-emergence, after 33 days (Table B8)
  herbicidal action: 0%
[2]; Polygonum, 25 g/ha, post-emergence, after 21 days (Table B29)
  herbicidal action: 75%
[2]; Polygonum, 25 g/ha, post-emergence, after 21 days (Table B31)
  herbicidal action: 75%
[2]; Polygonum, 25 g/ha, post-emergence, after 21 days (Table B36)
  herbicidal action: 75%
[2]; Xanthium, 6.25 g/ha, post-emergence, after 33 days
  herbicidal action: 70%
[2]; Xanthium, 6.25 g/ha, post-emergence, after 33 days (Table B10)
  herbicidal action: 70%
[2]; Xanthium, 12.5 g/ha, post-emergence, after 33 days
  herbicidal action: 80%
[2]; Xanthium, 12.5 g/ha, post-emergence, after 33 days (Table B8)
  herbicidal action: 80%
[2]; Xanthium, 25 g/ha, post-emergence, after 21 days
  herbicidal action: 90%
[3]; Abutilon
  phytotoxic action: 100%
[3]; Maize
  phytotoxic action: 50%
[3]; Setaria
  phytotoxic action: 100%

## CCc1cccc(C)c1N(COCCl)C(C)COC (centres unmarked) [Compound 2.2.b, reference compound]
[1]; Chenopodium, 300 g/ha, after 14 days
  herbicidal action: 0%
[1]; Cyperus, 300 g/ha, after 14 days
  herbicidal action: 0%
[1]; Solanum, 300 g/ha, after 14 days
  herbicidal action: 40%

## CSc1nnc(C(C)(C)C)c(=O)n1N [Compound 2.14, metribuzin, reference compound]
[1]; Ipomoea, 125 g/ha, after 31 days
  herbicidal action: 0%
[1]; Polygonum, 125 g/ha, after 14 days (Table B13)
  herbicidal action: 30%
[1]; Polygonum, 250 g/ha, after 14 days
  herbicidal action: 50%
[1]; Xanthium, 125 g/ha, after 31 days
  herbicidal action: 20%

## O=C(O)CNCP(=O)(O)O [Compound 2.16, glyphosate, reference compound]
[2]; in vivo
  herbicidal action: 20% and 10%

## CCC(CC)Nc1c([N+](=O)[O-])cc(C)c(C)c1[N+](=O)[O-] [Compound 2.18, pendimethalin, reference compound]
[1]; Polygonum, 500 g/ha, after 14 days
  herbicidal action: 80%

## COc1c(Cl)ccc(Cl)c1C(=O)O [Compound 2.19, dicamba, reference compound]
[2]; in vivo
  herbicidal action: 60%

## COC(=O)CSc1cc(/N=c2\sc(=O)n3n2CCCC3)c(F)cc1Cl [Compound 2.25, fluthiacet-methyl, reference compound]
[2]; Ipomoea, 2 g/ha, post-emergence, after 21 days
  herbicidal action: 0%
[2]; Polygonum, 2 g/ha, post-emergence, after 21 days
  herbicidal action: 0%

## CC(C)N(C(=O)COc1nnc(C(F)(F)F)s1)c1ccc(F)cc1 [Compound 2.30, fluthiamid, reference compound]
[1]; Cyperus, 100 g/ha, after 14 days (Table B22)
  herbicidal action: 0%
[1]; Polygonum, 60 g/ha, after 14 days (Table B15)
  herbicidal action: 30%

## O=C(O)CNCP(=O)(O)O [Compound 2.33, sulfosate, reference compound]
[2]; Polygonum, 360 g/ha, post-emergence, after 21 days (Table B32)
  herbicidal action: 0%
